Molecules are shown by their SMILES.

In one data set the target is T1, human mGlu5 (Homo sapiens, UniProt P41594).
T1 construct: expressed in transfected cells
Put plainly: Calcium mobilization assay in human mGlu5-HEK293A cells (NAM, EC80 glutamate). Format: cell-based. To be noted: for % GluMin: efficacy of the NAM to reduce an EC80 response of glutamate; for % GluMin / pIC50 / IC50: human mGlu5-HEK293A cells; for pIC50 / IC50: EC80 fixed concentration of glutamate; for pIC50: n = 2 in triplicate; for IC50: read-out: hmGlu5 IC50.

The nature of data set [1]: Intrinsic clearance in rat liver microsomes. Format: in vitro ADME. To be noted: for CLint scaled at 40 min, 1 µM: pH 7.4, rat liver microsomes; for CLhep, rat: predicted hepatic clearance based on microsomal CLint. Here is the method: (§1) Mean values for each species were calculated from 3 replicates.
(§2) Intrinsic Clearance in Rat and Human Liver Microsomes
(§3) The in vitro intrinsic clearance (CL int) was investigated in commercially obtained hepatic microsomes from rat and human donors using the substrate depletion (i.e., loss-of-parent vs. time, or t 1/2 method) approach with analyte detection via liquid chromatography-tandem mass spectrometry (LC-MS/MS). For each species, mean %parent remaining values at each time point were calculated from replicates raw data (analyte:IS peak area ratios) and used to determine in vitro t 1/2 and CLint.
(§4) Experiments were carried out using a robot-assisted (TECAN model Evo 200). Compound was incubated (1 µM final concentration) in buffer (100 mM potassium phosphate pH 7.4 with 3 mM MgCl2) containing hepatic microsomes (0.5 mg/mL final concentration) from multiple species, discretely, at 37 °C under constant orbital shaking. After 5 minutes (pre-incubation), reactions were initiated by addition of nicotinamide adenine dinucleotide phosphate (NADPH, 1 mM final concentration). At selected time intervals (0, 3, 7, 15, 25, and 45 minutes) post-addition of NADPH, aliquots (50 µL) were taken and placed into a 96-shallow-well plate containing ice cold acetonitrile (150 µL) with carbamazepine (IS, 50 nM). The plates were then centrifuged (3000 rcf at 4 °C) for 10 minutes. The supernatants were transferred to a new 96-shallow-well daughter plate and diluted (1:1 v/v) with water (Milli-Q filtered). The plates were then sealed in preparation for LC-MS/MS analysis (see below).
(§5) Raw LC-MS/MS peak area data generated from the assay samples were used to construct natural log-transformed %parent remaining vs. time plots (using t = 0 minute post-NADPH addition sample data as starting point set to 100%). In vitro compound half-life (t 1/2) values were obtained using the following […]
(§6) k is the slope from linear regression analysis of the natural log-transformed data (using means from Where all replicates at each time point). Resulting t 1/2 values were then used to calculate hepatic CLint values according to the following equation and with the use of species-specific scale-up factors for liver weight (grams) per total body weight (kg): […]
(§7) CLint = in vitro t1/2 x 0.5 mg microsomes x 1 gram liver x kg body wt aScale-up factors used are 45 (rat) and 20 (human).4
(§8) Predicted hepatic clearance (CLhep) was calculated using the following equation: […]
(§9) Qh represents hepatic blood flow (mL/min/kg): 21 for human, 70 for rat, and 90 for mouse.
(§10) Prepared samples were injected (10 µL each) onto an AB Sciex Triple Quad 4500 mass spectrometer system with an Agilent 1260 Infinity II pump and autosampler. Mass spectrometer conditions are described in Table S1. Quantitation of compounds was performed via AB Sciex Multiquant software using the raw analyte:IS peak area ratios. The typical detection range was 0.5 ng/mL to ≥ 5,000 ng/mL utilizing a quadratic equation regression with 1/x2 weighting.
(§11) Correction for dilution of all brain samples (in extraction buffer and subsequently in blank plasma, as previously described) was performed post-quantitation. The corrections for dilution in extraction buffer employed correction factors specific to each brain weight (not shown).

The nature of data set [2]: Intrinsic clearance in human liver microsomes. Format: in vitro ADME. To be noted: for CLint scaled at 40 min, 1 µM: pH 7.4, human liver microsomes; for CLhep, human: predicted hepatic clearance based on microsomal CLint. As to the method: as §1, §2, §3, §4, §5, §6, §7, §8, §9, §10, §11
Data set [3] is described as follows: Binding in plasma from rat (equilibrium dialysis). To be noted: for fraction unbound at 6 h, 5 µM: rat, plasma, equilibrium dialysis, read-out: Rat fu,plasma. Format: in vitro ADME. Here is the method:
(§12) Binding in plasma from rat and human.
(§13) Determination of compounds’ fraction unbound (f u) in plasma from rat and human was conducted in vitro via equilibrium dialysis using HTDialysis membrane plates. Dialysis membranes (four paired strips per HTD assay) were hydrated as described by the manufacturer and inserted into the HTD plate, which was assembled and prepared for sample addition by the dispensing of blank buffer (DPBS, 100 µL/well) into the ‘top half’ of each membrane-split well. Each compound was diluted into plasma from each species (5 µM final concentration), which was aliquoted in triplicate to the ‘bottom half’ of the prepared HTD plate wells. The HTD plate was sealed and incubated for 6 hours at 37 °C. Following incubation, each well (both top and bottom halves) were transferred (20 µL) to the corresponding wells of a 96-shallow-well (V-bottom) plate. The daughter plates were then matrix-matched (buffer side wells received equal volume of plasma, and plasma side wells received equal volume of buffer), and extraction solution (120 µL; acetonitrile containing 50 nM carbamazepine as IS) was added to all wells of both daughter plates to precipitate protein and extract test article. The plates were then sealed and centrifuged (3500 rcf) for 10 minutes at ambient temperature. Supernatant (60 µL) from each well of the daughter plates was then transferred to the corresponding wells of new daughter plates (96-shallow-well, V bottom) containing water (Milli-Q, 60 µL/well), and the plates were sealed in preparation for LC-MS/MS analysis (see below). fu was calculated as (analyte to IS MS peak area ratio from Trans-buffer side) / (analyte to IS MS peak area ratio from Cis-plasma side). Mean values for each species were calculated from 3 replicates. […]
(§14) Mean values for each species were calculated from 3 replicates. […]
as §4, with “After” for “Experiments were carried out using a robot-assisted (TECAN model Evo 200). Compound was incubated (1 µM final concentration) in buffer (100 mM potassium phosphate pH 7.4 with 3 mM MgCl2) containing hepatic microsomes (0.5 mg/mL final concentration) from multiple species, discretely, at 37 °C under constant orbital shaking. After”

Data set [4] in a line: Binding in plasma from human (equilibrium dialysis). Format: in vitro ADME. To be noted: human, plasma, read-out: Human fu,plasma. Here is the method:
as §12, §13, §14
as §4, with “After” for “Experiments were carried out using a robot-assisted (TECAN model Evo 200). Compound was incubated (1 µM final concentration) in buffer (100 mM potassium phosphate pH 7.4 with 3 mM MgCl2) containing hepatic microsomes (0.5 mg/mL final concentration) from multiple species, discretely, at 37 °C under constant orbital shaking. After”
In general terms: Equilibrium dialysis compares concentrations on both sides of a semipermeable membrane.

Data set [5] in a line: Binding in brain homogenate from rat (equilibrium dialysis). Format: in vitro ADME. To be noted: rat, brain homogenate, rat brain homogenates, read-out: Rat fu,brain. Here is the method:
transferred to the corresponding wells of new daughter plates (96-shallow-well, V bottom) containing water (Milli-Q, 60 µL/well), and the plates were sealed in preparation for LC-MS/MS analysis (see below). fu was calculated as (analyte to IS MS peak area ratio from Trans-buffer side) / (analyte to IS MS peak area ratio from Cis-plasma side). Mean values for each species were calculated from 3 replicates.
Binding in brain homogenate from rat.
Determination of fraction unbound (f u) in brain homogenate from rat was conducted using the same methodology and procedure than described for plasma protein binding assay with the following modifications: 1) a final compound concentration of 1 μM was used, 2) naïve rat brains were homogenized in DPBS (1:3 composition of brain: DPBS, w/w) using a Mini-Bead Beater™ machine in order to obtain […]
The diluted fraction unbound (f u2) in brain was calculated as (analyte to IS MS peak area ratio from Trans-buffer side) / (analyte to IS MS peak area ratio from Cis-brain homogenate side). Undiluted fraction unbound for the brain was calculated using the following equation: […]
as §14

The nature of data set [6]: IV plasma-brain level determination (PBL) in rat. To be noted: male, Sprague-Dawley, brain and plasma, SD rat, 0.2 mg/kg IV; for Kp at 0.25 h: total brain-to-plasma partition ratio; for Kp uu at 0.25 h: unbound brain-to-plasma partition ratio. Format: in vivo.

T1 sequence (P41594 21-1212): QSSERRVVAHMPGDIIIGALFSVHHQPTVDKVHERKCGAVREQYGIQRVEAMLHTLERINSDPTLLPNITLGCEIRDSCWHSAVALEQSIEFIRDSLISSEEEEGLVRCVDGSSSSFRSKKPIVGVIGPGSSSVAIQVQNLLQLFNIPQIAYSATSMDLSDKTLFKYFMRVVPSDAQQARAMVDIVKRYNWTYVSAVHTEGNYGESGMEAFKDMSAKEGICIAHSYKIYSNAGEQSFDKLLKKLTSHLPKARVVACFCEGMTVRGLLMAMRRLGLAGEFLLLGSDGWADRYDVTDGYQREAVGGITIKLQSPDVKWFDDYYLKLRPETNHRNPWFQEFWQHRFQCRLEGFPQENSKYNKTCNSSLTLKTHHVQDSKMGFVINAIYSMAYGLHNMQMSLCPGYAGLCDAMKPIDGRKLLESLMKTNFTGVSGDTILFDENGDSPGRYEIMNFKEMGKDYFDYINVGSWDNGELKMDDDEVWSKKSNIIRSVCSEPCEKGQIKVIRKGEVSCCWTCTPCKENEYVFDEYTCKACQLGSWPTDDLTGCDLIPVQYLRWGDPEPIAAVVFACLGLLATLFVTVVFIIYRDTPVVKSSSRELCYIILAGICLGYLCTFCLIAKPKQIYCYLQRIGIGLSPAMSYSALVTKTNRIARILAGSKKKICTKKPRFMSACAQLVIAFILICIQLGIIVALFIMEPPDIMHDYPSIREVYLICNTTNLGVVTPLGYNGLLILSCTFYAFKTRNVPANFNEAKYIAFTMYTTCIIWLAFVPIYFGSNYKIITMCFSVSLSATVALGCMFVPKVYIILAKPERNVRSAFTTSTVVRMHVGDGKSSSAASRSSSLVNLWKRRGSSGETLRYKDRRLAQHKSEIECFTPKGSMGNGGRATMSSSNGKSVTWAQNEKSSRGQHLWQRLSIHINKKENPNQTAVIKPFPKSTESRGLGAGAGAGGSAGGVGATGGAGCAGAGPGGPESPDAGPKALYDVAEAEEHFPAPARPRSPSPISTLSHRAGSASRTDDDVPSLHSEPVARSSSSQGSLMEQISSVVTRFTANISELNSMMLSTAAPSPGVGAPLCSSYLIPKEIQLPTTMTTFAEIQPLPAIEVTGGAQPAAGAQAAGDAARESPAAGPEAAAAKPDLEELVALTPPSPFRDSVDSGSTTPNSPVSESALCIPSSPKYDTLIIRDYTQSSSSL

For `Cc1cccc(NC(=O)c2cc(Oc3ccnn3C)cc(C)n2)n1` [22hC], at human mGlu5, the “% GluMin” value came out at 2%; the pIC50 – broadly, the IC50 on a negative log10 scale, so that one unit is a factor of ten – is 7.04; the IC50 (in general, the midpoint of a concentration-inhibition curve) was 91 nM. Further, in data set [1], the CLint scaled (usually a measure of how fast metabolising enzymes remove a compound, apart from limits set by blood flow) at 40 min, 1 µM turned out to be 320 mL/min/kg and the “CLhep, rat” value is 57 mL/min/kg. In data set [2], the CLint scaled at 40 min, 1 µM was 241 mL/min/kg and the “CLhep, human” value was 19 mL/min/kg. The “stability in rat plasma” value in data set [3] (samples had low analyte peaks) is “potentially be unstable in rat plasma”. For the same molecule, in data set [4], the fraction unbound at 6 h, 5 µM was 0.034. Besides, in data set [5], the fraction unbound at 6 h, 1 µM is 0.021. Besides, the Kp (in general, tissue or fluid exposure divided by exposure in the circulation) at 0.25 h in data set [6] was determined as 2.42.

Turning to `Cc1cc(Oc2cnn(C)c2)cc(C(=O)Nc2nc(C)cs2)n1` [22iB], at human mGlu5 (22fC vs 22bC, 22gA vs 22iA, 22iA vs 22hA, 22iB vs 22hB), the “fold increase in hmGlu5 potency” value worked out at 3.4 fold. For the same molecule, on human mGlu5, the “% GluMin” value worked out at 2%, the pIC50 turned out to be 7.56 and the IC50 worked out at 28 nM. For the same molecule, in data set [1], the CLint scaled at 40 min, 1 µM worked out at 44 mL/min/kg and the “CLhep, rat” value was 27 mL/min/kg. In data set [2], the CLint scaled at 40 min, 1 µM was found to be 46 mL/min/kg and the “CLhep, human” value is 14 mL/min/kg. Besides, the fraction unbound at 6 h, 5 µM in data set [3] worked out at 0.089. For the same molecule, the fraction unbound at 6 h, 5 µM in data set [4] was determined as 0.063. The fraction unbound at 6 h, 1 µM in data set [5] turned out to be 0.014. Further, in data set [6], the Kp at 0.25 h came out at 1.37 and the Kp uu at 0.25 h is 0.22.

Consider `Cc1cccc(NC(=O)c2cc(Oc3cnn(C)c3)cc(C)n2)n1` [22iC], for which, at human mGlu5, the “% GluMin” value was determined as 1%, the pIC50 came out at 7.38 and the IC50 amounted to 41 nM. In data set [1], the CLint scaled at 40 min, 1 µM is 234 mL/min/kg and the “CLhep, rat” value is on record as 54 mL/min/kg. Also, in data set [2], the CLint scaled at 40 min, 1 µM was found to be 77 mL/min/kg and the “CLhep, human” value is on record as 17 mL/min/kg. Moreover, in data set [3], the fraction unbound at 6 h, 5 µM amounted to 0.059. Moreover, the fraction unbound at 6 h, 5 µM in data set [4] amounted to 0.041. Also, the fraction unbound at 6 h, 1 µM in data set [5] came out at 0.013. In addition, in data set [6], the Kp at 0.25 h amounted to 1.04 and the Kp uu at 0.25 h stood at 0.23.
